From patent publication US7655626B2, “Antiangiogenic peptides” (Universite de Liege, priority 2004, dated 2010)

Legend:
[1] = Lipid phase (liposome) fusion, R18 fluorescence; conditions: for Relative liposome fusion, pH 8 UC / Relative liposome fusion, pH 4 UC / Relative liposome fusion, pH 6 UC: uncharged liposomes; for Relative liposome fusion, pH 4 C / Relative liposome fusion, pH 6 C / Relative liposome fusion, pH 8 C: charged liposomes
Protocol: Lipid phase fusion was measured by following the fluorescence of a liposoluble marker, R18. When incorporated into liposomes at a high surface density, R18 fluorescence is attenuated. Upon dilution of the marker through membrane fusion of labeled and unlabeled liposomes, the attenuation is relieved and R18 fluorescence increases. Labeled liposomes were prepared by blending R18 into the lipid film (see table 1). Labeled and unlabeled liposomes were mixed in a 1:4 ratio (w/w) and diluted to a concentration of 50 μM. Fluorescence is measured at room temperature (excitation λ: 560 nm, emission λ: 590 nm) on a Perkin Elmer LS-50B fluorimeter. The ability of PO-PRL to induce liposome fusion was analyzed in two different liposome preparations at different pH (table 1).
The following buffers were used: pH 8 buffer (10 mM Tris-HCl, pH=8; 150 mM NaCl; 0.01% EDTA; 1 mM NaN3), pH 6 buffer (10 mM Sodium-Acetate, pH=6; 150 mM NaCl; 0.01% EDTA; 1 mM NaN3), pH 4 buffer (10 mM Sodium Acetate, pH=4; 57 mM Acetic Acid)
The following concentrations of the peptide were used: • 600 μM corresponding to a molar peptide/lipid ratio (R) of 0.2 • 300 μM corresponding to a peptide/lipid ratio (R) of 0.1 • 150 μM corresponding to a peptide/lipid ratio (R) of 0.05 • 60 μM corresponding to a peptide/lipid ratio (R) of 0.02 • 30 μM corresponding to a peptide/lipid ratio (R) of 0.01.

[2] = Secondary structure by ATR-FTIR; assay type: physicochemical; conditions: peptide dissolved in 100% DMSO
Protocol: The conformation of the peptide in solution is analyzed by Fourier transformed infrared spectroscopy (ATR-FTIR). The sample (20 μg) is spread on a Germanium plate and spectra are recorded between 1800 and 1000 cm−1. The deconvolution of the 1700-1600 cm−1 area, corresponding to the amide I band, allows the determination of the secondary structure of the peptide (Goormaghtigh, E., et al. Biochim Biophys Acta 1422:[…] (1999)). The secondary structure of the peptide is given Table 3. Tilted peptides are often in β structure in solution, while being helical in the presence of lipids (Martin, I., et al. Biochem Biophys Res Commun 175:872-9 (1991)).

[3] = tested on: BACE cells; assay: Apoptosis by flow cytometry (propidium iodide, sub-G1 population); assay type: cell-based, Bovine; conditions: 10 nM; 18-h treatment; untreated cells 1%
Protocol: In order to determine the effect of MPB-PO-PRL on endothelial cell apoptosis, the inventors have analyzed the DNA content of MBP-PO-PRL treated cells by flow cytometry. For this purpose, DNA was labeled with propidium iodide. Bovine adrenal cortex endothelial (BACE) cells were plated in low-glucose Dulbbecco's modified Eagle's medium containing 10% fetal calf serum (FCS) and 100 U/ml penicillin/streptomycin per ml (10% FCS medium) at a density of cells 5×10^5/100 mm plate. 24 h after plating, cells were treated for 18 h with the proteins of interest. The cells were then harvested and fixed and permeabilized in ice-cold ethanol for 2 h before centrifugation and incubation (at 37° C. for 30 min) in PBS containing Rnase (5 μg/ml) and propidium iodide (50 μg/ml). The cells were analysed using a Coulter Epics XL flow cytometer.

[4] = tested on: BACE cells; assay: In vitro capillary formation, collagen gel assay; assay type: cell-based, Bovine; conditions: 10 nM
Protocol: In order to further analyze the ability of the MBP-PO-PRL to prevent angiogenesis in vitro, its capacity to prevent capillary formation was analyzed in a collagen gel assay. This assay was performed as follows: 20000 cells were plated between two collagen gels (5 volumes rat tail collagen, 1 volume 10×M199 medium, 50 mM NaHCO3). Gels were overlaid with 10% FBS medium containing or not recombinant proteins of interest.

[5] = tested on: B16-F10 murine melanoma cells; assay: Viability assay (calcein-AM), B16-F10; assay type: cell-based; conditions: 10 nM; 72 h
Protocol: (§1) In order to determine whether the effect of tilted peptides exerted on endothelial cells is cell specific, a viability assay was performed on BACE and ABAE endothelial cells and on two tumoral cells lines, the B16-F10 murine melanoma cells and the MDA-MB-231 human breast cancer cell. Viable cells are detected by the presence of intracellular esterase, determined by the enzymatic conversion of non fluorescent calcein AM (an ester derivative) into fluorescent calcein.
(§2) To determine whether the activity of the MBP-PO-PRL and MBP-PO-GH is specific for endothelial cells, their ability to affect viability of B16-F10 and MDA-MB-231 cell line was determined. 25000 MDA-MB-231 cells and B16-F10 cells were plated in 24-well plates, respectively in 0.5 ml 10% FCS/RPMI medium and in 10% FCS/DMEM 4500 medium. The cells were treated with recombinant proteins or campthotecin for 72 h. Cells were washed, incubated with calcein-AM and fluorescence determined as described above.

[6] = tested on: MDA-MB-231 human breast cancer cell; assay: Viability assay (calcein-AM), MDA-MB-231; assay type: cell-based; conditions: 10 nM; 72 h
Protocol: as §1, §2

Molecule: FLSLIVSILRSWNE [PO-PRL]
- Relative liposome fusion, pH 8 UC ([1]; R 0.05 (150 μM), 15 min): 38%
- Relative liposome fusion, pH 4 C ([1]; R 0.05, 15 min): 35%
- Relative liposome fusion, pH 4 UC ([1]; R 0.05, 15 min): 100%
- Relative liposome fusion, pH 6 C ([1]; R 0.05, 15 min): 35%
- Relative liposome fusion, pH 6 UC ([1]; R 0.05, 15 min): 38%
- Relative liposome fusion, pH 8 C ([1]; R 0.05, 15 min): 34%
- Relative liposome fusion, pH 8 UC ([1]; R 0.1 (300 μM), 15 min): 64%
- Relative liposome fusion, pH 4 C ([1]; R 0.1, 15 min): 34%
- Relative liposome fusion, pH 4 UC ([1]; R 0.1, 15 min): 105%
- Relative liposome fusion, pH 6 C ([1]; R 0.1, 15 min): 44%
- Relative liposome fusion, pH 6 UC ([1]; R 0.1, 15 min): 55%
- Relative liposome fusion, pH 8 C ([1]; R 0.1, 15 min): 41%
- Relative liposome fusion, pH 4 C ([1]; R 0.2, 15 min): 47%
- Relative liposome fusion, pH 4 UC ([1]; R 0.2, 15 min): 97%
- Relative liposome fusion, pH 6 C ([1]; R 0.2, 15 min): 87%
- Relative liposome fusion, pH 6 UC ([1]; R 0.2, 15 min): 68%
- Relative liposome fusion, pH 8 C ([1]; R 0.2, 15 min): 64%
- Relative liposome fusion, pH 8 UC ([1]; R (peptide/lipid) 0.2 (600 μM), after 15 min, reference set at 100%): 100%
- Secondary structure: Alpha [2]: 16%
- Secondary structure: Beta [2]: 63%
- Secondary structure: Coil [2]: 9%
- Secondary structure: Turn [2]: 12%

B1: 16K hPRL: 16 kDa N-terminal fragment of human prolactin, positive control (protein)
chain: LPICPGGAARCQVTLRDLFDRAVVLSHYIHNLSSEMFSEFDKRYTHGRGFITKAINSCHTSSLATPEDKEQAQQMNQKDFLSLIVSILRSWNEPLYHLVTEVRGMQEAPEAILSKAVEIEEQTKRLLEGMELIVSQVHP
- percentage of sub-G1 cell population [3]: 55,9%
- capillary formation in collagen gel [4]: prevents capillary formation
- cell viability [5]: do not affect viability
- cell viability [6]: do not affect viability
